Experiments:
FLT3 kinase = FLT3 kinase (Homo sapiens (Human), UniProt P36888); assay: Competition binding assay (Kd), FLT3
KIT kinase = KIT kinase (Homo sapiens (Human), UniProt P10721); assay: Competition binding assay (Kd), KIT
Procedure: In certain embodiments, competition binding assays were performed as described in Fabian et al., Nature Biotechnology 2005, 23, 329-336.
Competition binding assays used herein were developed, validated and performed as described in Fabian et al., Nature Biotechnology 2005, 23, 329-336. Kinases were produced as fusions to T7 phage (See, Fabian et al. or WO04/015142) or alternatively, the kinases were expressed in HEK-293 cells and subsequently tagged with DNA for PCR detection (See, WO08/005,310). […] The liganded beads were blocked with excess biotin and washed with blocking buffer (SeaBlock (Pierce), 1% BSA, 0.05% Tween 20, 1 mM DTT) to remove unbound ligand and to reduce non-specific binding. […] Test compounds were prepared as 100× stocks in DMSO and diluted into the aqueous environment. Kds were determined using an eleven point threefold serial dilutions. DMSO or control compounds were was added to control assays lacking a test compound. […] The kinase concentration in the eluates was measured by quantitative PCR. […]

KIT kinase, sequence (P10721 26-976): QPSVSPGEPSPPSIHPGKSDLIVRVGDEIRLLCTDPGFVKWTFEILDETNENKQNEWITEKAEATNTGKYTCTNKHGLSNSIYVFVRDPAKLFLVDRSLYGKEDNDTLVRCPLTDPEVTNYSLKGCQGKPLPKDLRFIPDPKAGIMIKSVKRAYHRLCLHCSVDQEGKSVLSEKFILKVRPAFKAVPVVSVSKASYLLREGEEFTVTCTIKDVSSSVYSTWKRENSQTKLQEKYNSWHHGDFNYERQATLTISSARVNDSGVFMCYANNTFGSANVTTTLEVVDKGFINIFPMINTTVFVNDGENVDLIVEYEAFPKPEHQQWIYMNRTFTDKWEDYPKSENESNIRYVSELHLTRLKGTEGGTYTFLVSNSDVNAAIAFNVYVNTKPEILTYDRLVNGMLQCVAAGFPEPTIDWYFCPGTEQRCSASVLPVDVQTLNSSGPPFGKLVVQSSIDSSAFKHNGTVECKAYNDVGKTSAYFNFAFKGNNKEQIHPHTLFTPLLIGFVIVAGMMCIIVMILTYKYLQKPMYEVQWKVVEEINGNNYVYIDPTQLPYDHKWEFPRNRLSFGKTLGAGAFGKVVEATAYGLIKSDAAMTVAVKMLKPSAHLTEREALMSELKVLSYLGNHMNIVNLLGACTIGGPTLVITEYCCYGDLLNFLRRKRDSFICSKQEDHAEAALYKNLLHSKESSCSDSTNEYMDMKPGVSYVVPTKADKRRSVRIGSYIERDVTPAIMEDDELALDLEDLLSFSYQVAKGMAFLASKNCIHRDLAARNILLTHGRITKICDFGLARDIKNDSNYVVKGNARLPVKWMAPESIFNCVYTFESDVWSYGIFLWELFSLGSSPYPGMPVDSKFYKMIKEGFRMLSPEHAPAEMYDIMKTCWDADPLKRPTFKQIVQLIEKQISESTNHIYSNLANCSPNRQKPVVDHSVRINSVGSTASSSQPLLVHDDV
FLT3 kinase, sequence (P36888 27-993): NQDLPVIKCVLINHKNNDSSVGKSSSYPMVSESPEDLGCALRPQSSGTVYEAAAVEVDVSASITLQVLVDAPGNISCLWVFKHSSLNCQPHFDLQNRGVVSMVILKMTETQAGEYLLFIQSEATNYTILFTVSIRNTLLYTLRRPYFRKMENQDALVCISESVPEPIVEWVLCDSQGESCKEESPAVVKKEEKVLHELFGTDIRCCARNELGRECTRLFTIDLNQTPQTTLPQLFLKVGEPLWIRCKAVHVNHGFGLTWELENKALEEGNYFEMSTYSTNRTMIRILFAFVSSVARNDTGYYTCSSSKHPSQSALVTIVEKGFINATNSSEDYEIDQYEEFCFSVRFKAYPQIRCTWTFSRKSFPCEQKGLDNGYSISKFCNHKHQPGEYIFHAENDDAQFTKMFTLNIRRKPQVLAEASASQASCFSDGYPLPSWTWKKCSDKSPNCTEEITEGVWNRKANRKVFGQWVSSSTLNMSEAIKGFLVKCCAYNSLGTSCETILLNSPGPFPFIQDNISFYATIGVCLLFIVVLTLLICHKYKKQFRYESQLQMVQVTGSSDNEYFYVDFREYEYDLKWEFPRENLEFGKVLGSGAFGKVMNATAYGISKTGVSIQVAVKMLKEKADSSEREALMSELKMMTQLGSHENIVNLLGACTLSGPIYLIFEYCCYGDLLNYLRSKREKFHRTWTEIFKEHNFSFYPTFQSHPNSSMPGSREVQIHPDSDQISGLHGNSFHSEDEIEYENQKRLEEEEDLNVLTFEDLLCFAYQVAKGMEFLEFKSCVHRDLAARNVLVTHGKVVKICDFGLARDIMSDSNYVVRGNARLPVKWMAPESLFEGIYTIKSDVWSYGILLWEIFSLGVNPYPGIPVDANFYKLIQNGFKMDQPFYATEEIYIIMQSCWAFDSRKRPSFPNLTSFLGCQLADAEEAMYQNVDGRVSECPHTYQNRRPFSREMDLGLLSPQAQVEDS

Kd (FLT3 kinase; competition binding assay) | Kd (KIT kinase; competition binding assay) | Kd (FLT3 kinase; competition binding) | Kd (KIT kinase; competition binding) | SMILES
 |  | < 5 nM | < 5 nM | COc1cc2nc(-c3ccc(CC(=O)Nc4cc(C5(C(F)(F)F)CC5)on4)c(F)c3)cnc2cc1OCCN1CCOC[C@@H]1C [Example 243, 2-[2-fluoro-4-[7-methoxy-6-[2-[(3S)-3-methylmorpholin-4-yl]ethoxy]quinoxalin-2-yl]phenyl]-N-[5-[1-(trifluoromethyl)cyclo-propyl]isoxazol-3-yl]acetamide]
 |  | < 5 nM | < 5 nM | COc1cc2nc(-c3ccc(CC(=O)Nc4cc(C5(C(F)(F)F)CC5)on4)c(F)c3)cnc2cc1OC[C@@H](C)O [Example 208, 2-[2-fluoro-4-[6-[(2R)-2-hydroxypropoxy]-7-methoxy-quinoxalin-2-yl]phenyl]-N-[5-[1-(trifluoro-methyl)cyclopropyl]isoxazol-3-yl]acetamide]
 |  | < 5 nM | 20 to 50 nM | COc1cc2ncc(-c3ccc(CC(=O)Nc4cc(C(C)(C)C(F)(F)F)on4)c(F)c3)cc2cc1OCCN1CCC(F)(F)CC1 [Example 207, 2-[4-[6-[2-(4,4-difluoro-1-piperidyl)ethoxy]-7-methoxy-3-quinolyl]-2-fluoro-phenyl]-N-[5-(2,2,2-trifluoro-1,1-dimethyl-ethyl)isoxazol-3-yl]acetamide]
 |  | < 5 nM | < 5 nM | COc1cc2ncc(-c3ccc(CC(=O)Nc4cc(C5(C(F)(F)F)CC5)on4)c(F)c3)nc2cc1OCCCN [Example 227, 2-[4-[7-(3-aminopropoxy)-6-methoxy-quinoxalin-2-yl]-2-fluoro-phenyl]-N-[5-[1-(trifluoromethyl)cyclo-propyl]isoxazol-3-yl]acetamide]
 |  | < 5 nM | < 5 nM | COc1cc2cc(-c3ccc(CC(=O)Nc4cc(C5(C(F)(F)F)CC5)on4)c(F)c3)cnc2cc1OCCN1CCOCC1 [Example 232, 2-[2-fluoro-4-[6-methoxy-7-(2-morpholinoethoxy)-3-quinolyl]phenyl]-N-[5-[1-(trifluoromethyl)cyclo-propyl]isoxazol-3-yl]acetamide]
 |  | < 5 nM | < 5 nM | COc1cc2ncc(-c3ccc(CC(=O)Nc4cc(C5(C(F)(F)F)CC5)on4)c(F)c3)nc2cc1OCC(C)(C)O [Example 239, 2-[2-fluoro-4-[7-(2-hydroxy-2-methyl-propoxy)-6-methoxy-quinoxalin-2-yl]phenyl]-N-[5-[1-(trifluoro-methyl)cyclopropyl]isoxazol-3-yl]acetamide]
 |  | < 5 nM | < 5 nM | COc1cc2nc(-c3ccc(CC(=O)Nc4cc(C5(C(F)(F)F)CC5)on4)c(F)c3)cnc2cc1OCCN1CCCOCC1 [Example 240, 2-[2-fluoro-4-[7-methoxy-6-[2-(1,4-oxazepan-4-yl)ethoxy]quinoxalin-2-yl]phenyl]-N-[5-[1-(trifluoromethyl)cyclo-propyl]isoxazol-3-yl]acetamide]
 |  | < 5 nM | < 5 nM | COc1cc2nc(-c3ccc(CC(=O)Nc4cc(C(C)(C)C(F)(F)F)on4)c(F)c3)cnc2cc1OCC(C)(C)O [Example 246, 2-[2-fluoro-4-[6-(2-hydroxy-2-methyl-propoxy)-7-methoxy-quinoxalin-2-yl]phenyl]-N-[5-(2,2,2-trifluoro-1,1-dimethyl-ethyl)isoxazol-3-yl]acetamide]
 |  | < 5 nM | < 5 nM | COc1cc2nc(-c3ccc(CC(=O)Nc4cc(C5(C(F)(F)F)CC5)nn4C)c(F)c3)cnc2cc1OCCN1CCOCC1 [Example 228, 2-[2-fluoro-4-[7-methoxy-6-(2-morpholino-ethoxy)quinoxalin-2-yl]phenyl]-N-[2-methyl-5-[1-(trifluoromethyl)cyclo-propyl]pyrazol-3-yl]acetamide]
 |  | < 5 nM | < 5 nM | COc1cc2nc(-c3ccc(CC(=O)Nc4cc(C(C)(C)C(F)(F)F)on4)c(F)c3)cnc2cc1OCCn1cncn1 [Example 210, 2-[2-fluoro-4-[7-methoxy-6-[2-(1,2,4-triazol-1-yl)ethoxy]quinoxalin-2-yl]phenyl]-N-[5-(2,2,2-trifluoro-1,1-dimethyl-ethyl)isoxazol-3-yl]acetamide]

Second part, the compound before the results:

SMILES | Kd (FLT3 kinase; competition binding assay) | Kd (KIT kinase; competition binding assay) | Kd (FLT3 kinase; competition binding) | Kd (KIT kinase; competition binding)
COc1cc2nc(-c3ccc(CC(=O)Nc4cc(C5(C(F)(F)F)CC5)on4)c(F)c3)cnc2cc1OCCN1CCC(F)(F)C1 [Example 82, 2-(4-(6-(2-(3,3-difluoropyrrolidin-1-yl)ethoxy)-7-methoxyquinoxalin-2-yl)-2-fluorophenyl)-N-(5-(1-(trifluoromethyl)cyclopropyl)isoxazol-3-yl)acetamide] | < 5 nM | < 5 nM |  | 
COc1cc2ncc(-c3ccc(CC(=O)Nc4cc(C(C)(C)C(F)(F)F)on4)c(F)c3)cc2cc1OCCN [Example 204, 2-[4-[6-(2-aminoethoxy)-7-methoxy-3-quinolyl]-2-fluoro-phenyl]-N-[5-(2,2,2-trifluoro-1,1-dimethyl-ethyl)isoxazol-3-yl]acetamide] |  |  | < 5 nM | < 5 nM
COc1cc2ncc(-c3ccc(CC(=O)Nc4cc(C(C)(C)C(F)(F)F)on4)c(F)c3)nc2cc1O [Example 184, 2-[2-fluoro-4-(7-hydroxy-6-methoxy-quinoxalin-2-yl)phenyl]-N-[5-(2,2,2-trifluoro-1,1-dimethyl-ethyl)isoxazol-3-yl]acetamide] | < 5 nM | < 5 nM |  | 
O=C(Cc1ccc(-c2cnc3ccsc3c2)cc1)Nc1cc(C2(C(F)(F)F)CC2)on1 [Example 10, 2-(4-(thieno[3,2-b]pyridin-6-yl)phenyl)-N-(5-(1-(trifluoromethyl)cyclopropyl)isoxazol-3-yl)acetamide] | < 5 nM | < 5 nM |  | 
COc1cc2ncc(-c3ccc(CC(=O)Nc4cc(C5(C(F)(F)F)CC5)on4)c(F)c3)cc2cc1OCCO [Example 179, 2-[2-fluoro-4-[6-(2-hydroxyethoxy)-7-methoxy-3-quinolyl]phenyl]-N-[5-[1-(trifluoromethyl)cyclo-propyl]isoxazol-3-yl]acetamide] | < 5 nM | < 5 nM |  | 
COc1cc2nc(-c3ccc(CC(=O)Nc4cc(C(C)(C)C(F)(F)F)on4)cc3)cnc2cc1OCCN1CCOCC1 [Example 93, 2-(4-(7-methoxy-6-(2-morpholinoethoxy)quinoxalin-2-yl)phenyl)-N-(5-(1,1,1-trifluoro-2-methylpropan-2-yl)isoxazol-3-yl)acetamide] | < 5 nM | < 5 nM |  | 
CNCCOc1cc2ncc(-c3ccc(CC(=O)Nc4cc(C5(C(F)(F)F)CC5)on4)c(F)c3)nc2cc1OC [Example 175, 2-[2-fluoro-4-[7-methoxy-6-[2-(methyl-amino)ethoxy]quinoxalin-2-yl]phenyl]-N-[5-[1-(trifluoro-methyl)cyclo-propyl]isoxazol-3-yl]acetamide] | < 5 nM | < 5 nM |  | 
COc1cc2cc(-c3ccc(CC(=O)Nc4cc(C(C)(C)C(F)(F)F)on4)c(F)c3)cnc2cc1OCCNCCO [Example 201, 2-[2-fluoro-4-[7-[2-(2-hydroxyethylamino)ethoxy]-6-methoxy-3-quinolyl]phenyl]-N-[5-(2,2,2-trifluoro-1,1-dimethyl-ethyl)isoxazol-3-yl]acetamide] |  |  | < 5 nM | < 5 nM
COc1cc2ncc(-c3ccc(CC(=O)Nc4cc(C5(C(F)(F)F)CC5)on4)c(F)c3)cc2cc1OCCN [Example 192, 2-[4-[6-(2-aminoethoxy)-7-methoxy-3-quinolyl]-2-fluoro-phenyl]-N-[5-[1-(trifluoromethyl)cyclo-propyl]isoxazol-3-yl]acetamide] |  |  | < 5 nM | < 5 nM
COCCOc1cc2cc(-c3ccc(CC(=O)Nc4cc(C5(C(F)(F)F)CC5)on4)c(F)c3)cnc2cc1OC [Example 188, 2-[2-fluoro-4-[7-methoxy-6-(2-methoxyethoxy)-3-quinolyl]phenyl]-N-[5-[1-(trifluoromethyl)cyclo-propyl]isoxazol-3-yl]acetamide] |  |  | < 5 nM | < 5 nM
COCCOc1cc2cc(-c3ccc(CC(=O)Nc4cc(C(C)(C)C(F)(F)F)on4)c(F)c3)cnc2cc1OC [Example 177, 2-[2-fluoro-4-[7-methoxy-6-(2-methoxyethoxy)-3-quinolyl]phenyl]-N-[5-(2,2,2-trifluoro-1,1-dimethyl-ethyl)isoxazol-3-yl]acetamide] | < 5 nM | < 5 nM |  | 
COc1cc2ncc(-c3ccc(CC(=O)Nc4cc(C(C)(C)C(F)(F)F)on4)c(F)c3)nc2cc1OCCCN1CCOCC1 [Example 203, 2-[2-fluoro-4-[6-methoxy-7-(3-morpholino-propoxy)quinoxalin-2-yl]phenyl]-N-[5-(2,2,2-trifluoro-1,1-dimethyl-ethyl)isoxazol-3-yl]acetamide] |  |  | < 5 nM | < 5 nM
COc1cc2nc(-c3ccc(CC(=O)Nc4cc(C5(C(F)(F)F)CC5)on4)c(F)c3)cnc2cc1OCCN1CC2CC(C1)O2 [Example 223, 2-[2-fluoro-4-[7-methoxy-6-[2-(6-oxa-3-azabicyclo[3.1.1]heptan-3-yl)ethoxy]quinoxalin-2-yl]phenyl]-N-[5-[1-(trifluoromethyl)cyclo-propyl]isoxazol-3-yl]acetamide] |  |  | < 5 nM | < 5 nM
COc1cc2ncc(-c3ccc(CC(=O)Nc4cc(C5(C(F)(F)F)CC5)n[nH]4)c(F)c3)nc2cc1OC [Example 180, 2-[4-(6,7-dimethoxyquinoxalin-2-yl)-2-fluoro-phenyl]-N-[3-[1-(trifluoromethyl)cyclo-propyl]-1H-pyrazol-5-yl]acetamide] | < 5 nM | < 5 nM |  | 
Nc1nc2ccccc2nc1-c1ccc(CC(=O)Nc2cc(C3(C(F)(F)F)CC3)on2)cc1 [Example 7, 2-(4-(3-aminoquinoxalin-2-yl)phenyl)-N-(5-(1-(trifluoromethyl)cyclopropyl)isoxazol-3-yl)acetamide] | < 5 nM | < 5 nM |  | 

— patent US9725465B2, “Biaryl acetamide compounds and methods of use thereof” (Ambit Biosciences Corporation, priority 2013, dated 2017)
